Experiments:
[1] = system: vessel development of the FLK1-GFP transgenic danio rerio; test: Inhibition test on vascular development of Danio rerio; format: in vivo
Description: Female fish can spawn 200-300 […], and the fertilization and embryonic development processes are conducted in vitro. They can grow up within 24 hours, and the embryo is transparent, which is suitable for observing the change of intracorporal organs and tissues. These characteristics make the danio rerio become to be one of the five fish laboratory animals accepted by the international organization for standardization. Currently, the danio rerio is widely used in human disease studies, especially used in cardiovascular system studies. The danio rerio can be used for screening the influence of small molecular compounds on angiogenesis. Experimental Method: This experiment uses FLK1-GFP transgenic danio rerio as an animal model which is generally used for screening the influence of compounds on angiogenesis. Vessel can be in vivo observed under fluorescence microscope (Suk-Won Jin, 2005, Development). The selected embryo of the postnatal FLK1-GFP transgenic danio rerio was placed into a culture dish and incubated for 3-5 days in an incubator at 28° C. […] Examine the developmental condition of the vertebral vessel after 24 hours and take photo by use of the fluorescence microscope.

VEGFR2 (KDR) = biological target: T1, VEGFR2 (KDR) (Homo sapiens, UniProt P35968); test: Kinase inhibition dosage effect, KDR; format: biochemical
T1 construct: purchased Invitrogen

PDGFR-β [2] = biological target: T2, PDGFR-β (Homo sapiens, UniProt P09619); test: Kinase inhibition dosage effect, PDGFR-β; format: biochemical
T2 construct: purchased Upstate

AURORA-B = biological target: T3, AURORA-B (Homo sapiens, UniProt Q96GD4); test: Inhibition specificity, AURORA-B; format: biochemical; conditions: 5000 nM, average of two tests; read-out: Average Inhibition Rate (%) AURORA-B
T3 construct: purchased CARNA

BRAF = biological target: T4, BRAF (Homo sapiens, UniProt P15056); test: Inhibition specificity, BRAF; format: biochemical; conditions: 5000 nM, average of two tests; read-out: Average Inhibition Rate (%) BRAF
T4 construct: purchased UPSTATE

CHEK1 = biological target: T5, CHEK1 (Homo sapiens, UniProt O14757); test: Inhibition specificity, CHEK1; format: biochemical; conditions: 5000 nM, average of two tests; read-out: Average Inhibition Rate (%) CHEK1
T5 construct: purchased CARNA

DMPK = biological target: T6, DMPK (Homo sapiens, UniProt Q09013); test: Inhibition specificity, DMPK; format: biochemical; conditions: 5000 nM, average of two tests; read-out: Average Inhibition Rate (%) DMPK
T6 construct: purchased INVITROGEN

EGFR = EGFR (Homo sapiens, UniProt P00533); test: Inhibition specificity, EGFR; format: biochemical; conditions: 5000 nM, average of two tests; read-out: Average Inhibition Rate (%) EGFR
GSK-3-β = biological target: T7, GSK-3-β (Homo sapiens, UniProt P49841); test: Inhibition specificity, GSK-3-β; format: biochemical; conditions: 5000 nM, average of two tests; read-out: Average Inhibition Rate (%) GSK-3-β
T7 construct: purchased UPSTATE

KDR (VEGFR2) = biological target: T8, KDR (VEGFR2) (Homo sapiens, UniProt P35968); test: Inhibition specificity, KDR; format: biochemical; conditions: 5000 nM, average of two tests; read-out: Average Inhibition Rate (%) KDR
T8 construct: purchased Invitrogen

KIT = biological target: T9, KIT (Homo sapiens, UniProt P10721); test: Inhibition specificity, KIT; format: biochemical; conditions: 5000 nM, average of two tests; read-out: Average Inhibition Rate (%) KIT
T9 construct: purchased INVITROGEN

MAPK3 = biological target: T10, MAPK3 (Homo sapiens, UniProt P27361); test: Inhibition specificity, MAPK3; format: biochemical; conditions: 5000 nM, average of two tests; read-out: Average Inhibition Rate (%) MAPK3
T10 construct: purchased INVITROGEN

MEK1 = biological target: T11, MEK1 (Homo sapiens, UniProt Q02750); test: Inhibition specificity, MEK1; format: biochemical; conditions: 5000 nM, average of two tests; read-out: Average Inhibition Rate (%) MEK1
T11 construct: purchased UPSTATE

MET = biological target: T12, MET (Homo sapiens, UniProt P08581); test: Inhibition specificity, MET; format: biochemical; conditions: 5000 nM, average of two tests; read-out: Average Inhibition Rate (%) MET
T12 construct: purchased INVITROGEN

PDGFR-β [3] = biological target: T2, PDGFR-β; test: Inhibition specificity, PDGFR-β; format: biochemical; conditions: 5000 nM, average of two tests; read-out: Average Inhibition Rate (%) PDGFR-β
PI3K-α = biological target: T13, PI3K-α (Homo sapiens, UniProt P42336); test: Inhibition specificity, PI3K-α (ADP-Glo); format: biochemical; conditions: 5000 nM, average of two tests; read-out: Average Inhibition Rate (%) PI3K-α
T13 construct: purchased INVITROGEN

PKC-α = biological target: T14, PKC-α (Homo sapiens, UniProt P17252); test: Inhibition specificity, PKC-α; format: biochemical; conditions: 5000 nM, average of two tests; read-out: Average Inhibition Rate (%) PKC-α
T14 construct: purchased INVITROGEN

ROCK1 = biological target: T15, ROCK1 (Homo sapiens, UniProt Q13464); test: Inhibition specificity, ROCK1; format: biochemical; conditions: 5000 nM, average of two tests; read-out: Average Inhibition Rate (%) ROCK1
T15 construct: purchased CARNA

SRC = biological target: T16, SRC (Homo sapiens, UniProt P12931); test: Inhibition specificity, SRC; format: biochemical; conditions: 5000 nM, average of two tests; read-out: Average Inhibition Rate (%) SRC
T16 construct: purchased INVITROGEN

SYK = biological target: T17, SYK (Homo sapiens, UniProt P43405); test: Inhibition specificity, SYK; format: biochemical; conditions: 5000 nM, average of two tests; read-out: Average Inhibition Rate (%) SYK
T17 construct: purchased BPS

T2 sequence (P09619 33-1106, species assumed): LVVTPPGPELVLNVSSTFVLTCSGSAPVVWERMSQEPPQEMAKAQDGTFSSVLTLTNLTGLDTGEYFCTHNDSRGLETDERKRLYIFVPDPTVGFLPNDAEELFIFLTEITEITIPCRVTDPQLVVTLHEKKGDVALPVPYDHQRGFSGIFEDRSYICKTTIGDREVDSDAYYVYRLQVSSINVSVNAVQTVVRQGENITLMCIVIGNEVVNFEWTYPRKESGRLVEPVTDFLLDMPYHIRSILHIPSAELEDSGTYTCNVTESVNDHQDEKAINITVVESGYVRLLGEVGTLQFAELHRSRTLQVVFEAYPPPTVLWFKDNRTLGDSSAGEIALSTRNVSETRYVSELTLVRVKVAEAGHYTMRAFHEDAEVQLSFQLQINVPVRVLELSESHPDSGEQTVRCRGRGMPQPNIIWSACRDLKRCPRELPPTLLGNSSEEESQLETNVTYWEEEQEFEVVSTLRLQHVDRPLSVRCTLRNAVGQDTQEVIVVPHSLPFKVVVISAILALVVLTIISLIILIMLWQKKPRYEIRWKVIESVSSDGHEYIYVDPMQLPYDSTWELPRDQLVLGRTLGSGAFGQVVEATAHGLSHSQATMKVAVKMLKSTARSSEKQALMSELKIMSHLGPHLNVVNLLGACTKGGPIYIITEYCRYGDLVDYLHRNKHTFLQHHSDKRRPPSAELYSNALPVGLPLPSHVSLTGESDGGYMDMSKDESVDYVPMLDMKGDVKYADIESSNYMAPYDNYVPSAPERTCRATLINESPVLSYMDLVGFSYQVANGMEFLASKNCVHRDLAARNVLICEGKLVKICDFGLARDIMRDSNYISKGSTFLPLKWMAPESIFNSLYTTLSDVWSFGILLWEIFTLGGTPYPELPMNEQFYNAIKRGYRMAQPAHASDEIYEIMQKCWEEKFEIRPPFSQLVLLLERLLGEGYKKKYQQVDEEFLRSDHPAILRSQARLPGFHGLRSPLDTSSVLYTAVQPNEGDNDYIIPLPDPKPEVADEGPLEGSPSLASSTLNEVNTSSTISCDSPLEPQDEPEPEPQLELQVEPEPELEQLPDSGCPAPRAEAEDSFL
T1 sequence (P35968 20-1356, species assumed): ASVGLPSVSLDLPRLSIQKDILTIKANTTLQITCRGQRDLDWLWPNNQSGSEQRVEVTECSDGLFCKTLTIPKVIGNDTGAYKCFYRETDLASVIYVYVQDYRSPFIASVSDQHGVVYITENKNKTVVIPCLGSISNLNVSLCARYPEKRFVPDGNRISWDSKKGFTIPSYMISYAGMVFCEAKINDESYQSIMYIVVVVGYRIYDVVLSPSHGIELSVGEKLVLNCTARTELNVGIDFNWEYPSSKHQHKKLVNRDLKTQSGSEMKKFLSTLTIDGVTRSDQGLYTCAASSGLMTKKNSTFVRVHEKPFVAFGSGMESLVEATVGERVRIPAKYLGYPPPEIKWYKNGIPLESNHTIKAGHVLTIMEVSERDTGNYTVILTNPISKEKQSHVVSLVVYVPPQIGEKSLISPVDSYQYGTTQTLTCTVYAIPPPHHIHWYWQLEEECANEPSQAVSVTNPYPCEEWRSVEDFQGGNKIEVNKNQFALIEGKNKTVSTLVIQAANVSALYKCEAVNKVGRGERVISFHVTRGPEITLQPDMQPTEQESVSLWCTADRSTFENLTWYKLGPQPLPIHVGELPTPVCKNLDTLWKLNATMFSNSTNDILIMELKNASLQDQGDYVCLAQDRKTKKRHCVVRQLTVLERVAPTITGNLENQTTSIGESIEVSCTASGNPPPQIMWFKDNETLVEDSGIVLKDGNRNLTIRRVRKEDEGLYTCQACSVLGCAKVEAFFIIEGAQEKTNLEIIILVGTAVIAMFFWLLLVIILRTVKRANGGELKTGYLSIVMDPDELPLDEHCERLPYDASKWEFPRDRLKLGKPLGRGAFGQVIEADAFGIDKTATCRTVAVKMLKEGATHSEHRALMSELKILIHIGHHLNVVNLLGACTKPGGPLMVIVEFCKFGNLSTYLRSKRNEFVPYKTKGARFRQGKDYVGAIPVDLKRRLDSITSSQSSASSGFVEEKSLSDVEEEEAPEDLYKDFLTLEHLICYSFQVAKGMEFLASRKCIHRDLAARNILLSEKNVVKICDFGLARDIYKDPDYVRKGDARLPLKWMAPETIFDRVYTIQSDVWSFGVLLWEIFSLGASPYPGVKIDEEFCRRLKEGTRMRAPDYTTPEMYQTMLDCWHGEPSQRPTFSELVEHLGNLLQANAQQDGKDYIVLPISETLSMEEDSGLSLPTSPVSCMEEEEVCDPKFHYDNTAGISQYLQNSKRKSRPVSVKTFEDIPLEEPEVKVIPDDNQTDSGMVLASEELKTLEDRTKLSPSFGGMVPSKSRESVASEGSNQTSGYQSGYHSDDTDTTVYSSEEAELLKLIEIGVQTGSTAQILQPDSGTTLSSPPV
T4 sequence (P15056 whole entry, species assumed): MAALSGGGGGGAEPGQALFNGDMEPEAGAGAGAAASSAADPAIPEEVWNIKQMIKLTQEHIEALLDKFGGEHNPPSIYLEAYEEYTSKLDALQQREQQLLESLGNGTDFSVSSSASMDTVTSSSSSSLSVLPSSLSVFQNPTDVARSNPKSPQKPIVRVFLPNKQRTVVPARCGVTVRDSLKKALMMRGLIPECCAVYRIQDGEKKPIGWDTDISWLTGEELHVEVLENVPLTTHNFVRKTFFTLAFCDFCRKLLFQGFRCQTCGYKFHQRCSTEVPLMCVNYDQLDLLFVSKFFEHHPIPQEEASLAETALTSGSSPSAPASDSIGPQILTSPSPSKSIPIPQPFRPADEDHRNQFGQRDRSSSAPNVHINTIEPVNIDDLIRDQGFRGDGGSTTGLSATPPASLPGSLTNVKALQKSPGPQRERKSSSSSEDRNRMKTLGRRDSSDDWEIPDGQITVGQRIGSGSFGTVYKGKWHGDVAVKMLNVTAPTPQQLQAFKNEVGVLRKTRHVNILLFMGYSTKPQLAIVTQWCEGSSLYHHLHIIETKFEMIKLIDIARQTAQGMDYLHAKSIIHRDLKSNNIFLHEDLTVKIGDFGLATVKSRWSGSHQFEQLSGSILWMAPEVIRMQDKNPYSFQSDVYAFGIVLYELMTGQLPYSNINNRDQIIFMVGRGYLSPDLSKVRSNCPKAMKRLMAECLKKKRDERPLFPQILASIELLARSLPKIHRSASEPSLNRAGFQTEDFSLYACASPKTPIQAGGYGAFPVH
T6 sequence (Q09013 whole entry, species assumed): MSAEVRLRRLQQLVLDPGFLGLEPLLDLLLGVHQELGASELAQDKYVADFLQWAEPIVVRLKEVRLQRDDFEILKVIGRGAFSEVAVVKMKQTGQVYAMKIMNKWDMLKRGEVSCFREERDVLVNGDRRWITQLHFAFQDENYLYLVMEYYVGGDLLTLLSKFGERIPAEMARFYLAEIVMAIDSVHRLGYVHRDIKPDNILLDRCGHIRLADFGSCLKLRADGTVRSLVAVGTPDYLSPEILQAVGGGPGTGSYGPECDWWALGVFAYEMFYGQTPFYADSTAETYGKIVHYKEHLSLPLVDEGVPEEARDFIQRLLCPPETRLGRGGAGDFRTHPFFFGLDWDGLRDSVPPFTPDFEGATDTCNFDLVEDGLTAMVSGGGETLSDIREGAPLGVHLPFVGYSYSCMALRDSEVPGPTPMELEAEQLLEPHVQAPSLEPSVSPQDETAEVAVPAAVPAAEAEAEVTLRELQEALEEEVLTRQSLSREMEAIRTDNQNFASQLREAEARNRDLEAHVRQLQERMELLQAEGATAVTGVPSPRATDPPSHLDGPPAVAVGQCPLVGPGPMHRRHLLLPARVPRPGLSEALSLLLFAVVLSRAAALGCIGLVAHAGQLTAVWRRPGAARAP
T9 sequence (P10721 26-976, species assumed): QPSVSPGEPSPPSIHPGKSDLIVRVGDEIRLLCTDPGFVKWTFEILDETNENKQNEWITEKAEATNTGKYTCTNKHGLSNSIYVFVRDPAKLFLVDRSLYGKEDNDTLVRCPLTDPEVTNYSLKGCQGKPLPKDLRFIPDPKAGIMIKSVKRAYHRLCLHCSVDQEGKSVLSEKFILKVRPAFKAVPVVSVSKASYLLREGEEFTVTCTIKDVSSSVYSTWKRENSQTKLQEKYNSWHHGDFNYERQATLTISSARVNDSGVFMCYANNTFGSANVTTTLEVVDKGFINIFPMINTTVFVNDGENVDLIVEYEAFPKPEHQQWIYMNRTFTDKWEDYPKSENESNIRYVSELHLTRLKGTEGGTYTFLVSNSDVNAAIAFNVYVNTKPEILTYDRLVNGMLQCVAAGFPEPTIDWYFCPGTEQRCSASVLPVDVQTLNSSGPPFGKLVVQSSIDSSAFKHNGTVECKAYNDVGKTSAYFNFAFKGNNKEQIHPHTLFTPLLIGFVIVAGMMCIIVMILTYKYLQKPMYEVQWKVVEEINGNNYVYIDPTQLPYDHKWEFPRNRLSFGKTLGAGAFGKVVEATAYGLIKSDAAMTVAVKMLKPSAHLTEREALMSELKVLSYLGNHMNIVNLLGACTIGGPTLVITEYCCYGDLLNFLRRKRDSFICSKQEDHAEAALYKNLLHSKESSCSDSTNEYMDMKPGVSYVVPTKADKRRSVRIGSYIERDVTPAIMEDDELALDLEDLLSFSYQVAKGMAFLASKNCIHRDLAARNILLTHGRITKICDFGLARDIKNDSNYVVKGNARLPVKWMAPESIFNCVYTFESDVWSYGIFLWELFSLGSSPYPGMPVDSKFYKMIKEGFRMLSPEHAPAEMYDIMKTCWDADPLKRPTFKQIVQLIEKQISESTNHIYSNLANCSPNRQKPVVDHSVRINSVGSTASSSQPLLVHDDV
T3 sequence (Q96GD4 whole entry): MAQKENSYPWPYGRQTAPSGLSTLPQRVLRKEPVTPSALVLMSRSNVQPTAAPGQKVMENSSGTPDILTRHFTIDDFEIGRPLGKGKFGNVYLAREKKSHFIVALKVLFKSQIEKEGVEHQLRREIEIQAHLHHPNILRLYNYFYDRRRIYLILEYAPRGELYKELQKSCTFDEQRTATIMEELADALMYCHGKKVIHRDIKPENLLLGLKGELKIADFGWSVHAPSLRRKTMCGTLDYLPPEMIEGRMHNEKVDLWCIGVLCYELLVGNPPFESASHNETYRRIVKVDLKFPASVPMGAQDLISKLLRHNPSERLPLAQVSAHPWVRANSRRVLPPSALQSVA

## Nc1cc(Oc2ccc3c(C(=O)Nc4cccc(C(F)(F)F)c4)cccc3n2)ncn1 [Compound 2-1]
[1]; Danio rerio, 100 nM, after 24 hours, n = 5, read-out: inhibition rate on the development of vertebral vessel
  inhibition at 0.1 µM: 10%
[1]; Danio rerio, 1 μM, after 24 hours, n = 5, read-out: inhibition rate on the development of vertebral vessel
  inhibition at 1 µM: 50%
[1]; Danio rerio, 5 μM, after 24 hours, n = 5, read-out: inhibition rate on the development of vertebral vessel
  inhibition at 5 µM: 100%
[1]; Danio rerio, 10 μM, after 24 hours, n = 5, read-out: inhibition rate on the development of vertebral vessel
  inhibition at 10 µM: 100%
[1]; Danio rerio, 20 μM, after 24 hours, n = 5, read-out: inhibition rate on the development of vertebral vessel
  inhibition at 20 µM: 100%
[1]; Danio rerio, 40 μM, after 24 hours, n = 5, read-out: inhibition rate on the development of vertebral vessel
  inhibition at 40 µM: 100%
[1]; Danio rerio, 100 μM, after 24 hours, n = 5, read-out: inhibition rate on the development of vertebral vessel
  inhibition at 100 µM: 100%
[1]; Table 1 and FIG. 7
  inhibition effect on the vessel development of the danio rerio (in words): have inhibition effect on the vessel development of the danio rerio
VEGFR2 (KDR)
  inhibition activity on KDR (in words): good inhibition activity
VEGFR2 (KDR); [ATP] 80 μM, 3 hr
  IC50: 0.0277 µM
VEGFR2 (KDR); concentration 0.0002823 (uM)
  Inhibition Rate on KDR (%): 2.75%
VEGFR2 (KDR); concentration 0.0008468 (uM)
  Inhibition Rate on KDR (%): 0.61%
VEGFR2 (KDR); concentration 0.0025403 (uM)
  Inhibition Rate on KDR (%): 7.27%
VEGFR2 (KDR); concentration 0.0076208 (uM)
  Inhibition Rate on KDR (%): 20.59%
VEGFR2 (KDR); concentration 0.0228624 (uM)
  Inhibition Rate on KDR (%): 45.65%
VEGFR2 (KDR); concentration 0.0685871 (uM)
  Inhibition Rate on KDR (%): 71.24%
VEGFR2 (KDR); concentration 0.2057613 (uM)
  Inhibition Rate on KDR (%): 84.37%
VEGFR2 (KDR); concentration 0.6172840 (uM)
  Inhibition Rate on KDR (%): 91.13%
VEGFR2 (KDR); concentration 1.8518519 (uM)
  Inhibition Rate on KDR (%): 94.18%
VEGFR2 (KDR); concentration 5.5555556 (uM)
  Inhibition Rate on KDR (%): 95.30%
VEGFR2 (KDR); concentration 16.6666667 (uM)
  Inhibition Rate on KDR (%): 94.60%
VEGFR2 (KDR); concentration 50 (uM)
  Inhibition Rate on KDR (%): 94.91%
VEGFR2 (KDR); dose-effect curve fit
  Hill KDR: 1.066
PDGFR-β [2]
  inhibition activity on PDGFR-β (in words): good inhibition activity
PDGFR-β [2]; [ATP] 30 μM, 3 hr
  IC50: 1.94 µM
PDGFR-β [2]; concentration 0.0002823 (uM)
  Inhibition Rate on PDGFR-β (%): 0.72%
PDGFR-β [2]; concentration 0.0008468 (uM)
  Inhibition Rate on PDGFR-β (%): 2.69%
PDGFR-β [2]; concentration 0.0025403 (uM)
  Inhibition Rate on PDGFR-β (%): 0.80%
PDGFR-β [2]; concentration 0.0076208 (uM)
  Inhibition Rate on PDGFR-β (%): 1.43%
PDGFR-β [2]; concentration 0.0228624 (uM)
  Inhibition Rate on PDGFR-β (%): 7.89%
PDGFR-β [2]; concentration 0.0685871 (uM)
  Inhibition Rate on PDGFR-β (%): 10.09%
PDGFR-β [2]; concentration 0.2057613 (uM)
  Inhibition Rate on PDGFR-β (%): 12.85%
PDGFR-β [2]; concentration 0.6172840 (uM)
  Inhibition Rate on PDGFR-β (%): 23.86%
PDGFR-β [2]; concentration 1.8518519 (uM)
  Inhibition Rate on PDGFR-β (%): 46.85%
PDGFR-β [2]; concentration 5.5555556 (uM)
  Inhibition Rate on PDGFR-β (%): 73.86%
PDGFR-β [2]; concentration 16.6666667 (uM)
  Inhibition Rate on PDGFR-β (%): 86.35%
PDGFR-β [2]; concentration 50 (uM)
  Inhibition Rate on PDGFR-β (%): 85.78%
PDGFR-β [2]; dose-effect curve fit
  Hill PDGFR-β: 1.09
AURORA-B
  inhibition at 5 µM: ~31%
BRAF
  inhibition at 5 µM: 4.11%
CHEK1
  inhibition at 5 µM: 2.54%
DMPK
  inhibition at 5 µM: 1.53%
EGFR
  inhibition at 5 µM: 5.35%
GSK-3-β
  inhibition at 5 µM: -0.57%
KDR (VEGFR2)
  inhibition at 5 µM: > 97%
KIT
  inhibition at 5 µM: ~72%
MAPK3
  inhibition at 5 µM: 1.44%
MEK1
  inhibition at 5 µM: 1.06%
MET
  inhibition at 5 µM: 3.83%
PDGFR-β [3]
  inhibition at 5 µM: ~71%
PI3K-α
  inhibition at 5 µM: 6.78%
PKC-α
  inhibition at 5 µM: -0.01%
ROCK1
  inhibition at 5 µM: 2.63%
SRC
  inhibition at 5 µM: ~21%
SYK
  inhibition at 5 µM: -2.15%
